SMILES strings stand for the structures. pIC50: −log10 of the molar value. The source made the active and inactive calls.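 How the source made its calls: active means compounds whose IC50 against parasite growth in infected mouse cells is below 50000 nM; inactive means the rest.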 Where only a bound is given, the exact number is not on record here.

This note sets out measurements from PubChem BioAssay AID1159559 (GlaxoSmithKline (GSK), 2015).

In this assay the test system is T. cruzi Tulahuen in NIH-3T3, beta-gal fluorescence, 4 d. The assay can be described thus: T. cruzi intracellular growth inhibition, cell-based (AID 1159559).

Consider `Cn1cncc1CN1CCC2(CC1)COC(Cc1ccccc1)C2` (stereo not drawn), for which the pIC50 – broadly, the negative decadic logarithm of the IC50, by convention in mol/L – is 6.49.
Still for that read-out and setting: then `O=C(c1cc2cc(Cl)ccc2[nH]1)N1CCCCC1c1cccnc1` (stereo not drawn), with 6.60; and `CC(C)Oc1ccc(C(=O)Nc2ccc(N3CCOCC3)c(Cl)c2)cc1`, with 5.80; and `O=C(NC(c1ccc(Cl)cc1)c1cnccn1)C1CCN(C(=O)Nc2cccc(C(F)(F)F)c2)CC1` (stereo not drawn), with 6.20.
Turning to `CC(=Cc1ccccc1)CN1CCC(=O)N(Cc2cccnc2)CC1`, the pIC50 is 6.60.
`COc1ccc(S(=O)(=O)Nc2ccc(C(=O)Nc3nc(-c4ccccn4)cs3)cc2)cc1`: the pIC50 is 6.10.
Regarding `Cc1ccc2c(c1)SC(C(=O)Nc1n[nH]c(-c3ccccn3)n1)C2` (stereo not drawn), the pIC50 is 5.30.
As to `c1ccc(CNc2cccc3ccncc23)cc1`, the pIC50 was 5.20.
With `O=c1[nH]ccc2ccc(-c3ccncc3)cc12`, the pIC50 is 6.70.
For `CC(C)(C)C(=O)Nc1cc(C2CC2)nn1-c1nc2c(c(=O)[nH]1)CCCC2`, the pIC50 was 6.30.
Same read-out and setting: next, `CC1(Oc2cncc(Cl)c2)CCN(Cc2cc3ccccc3[nH]2)C1` (stereo not drawn): 6.00; `Cc1[nH]nc(Nc2ccnc3[nH]ccc23)c1C`: 5.40.
With `CN(Cc1ccccc1)Cc1nnnn1C1CCN(Cc2ccc(-n3ccnc3)cc2)CC1`, the pIC50 is 6.40.
In the case of `CC(=O)NCCNc1cc(-c2ccnc(Nc3cccc(Cl)c3)n2)ccn1`, the pIC50 is 6.40.
As to `COc1ccc2nc(N(Cc3cccnc3)C(=O)C3CCC3)sc2c1`, the pIC50 is 6.89.
Still for that read-out and setting: then `Cc1cc(NC(=O)CC2CCCCC2)n(-c2nc3c(c(=O)[nH]2)CCC3)n1`, with 6.60; and `CCOc1cc(NCCCN2CCN(C)CC2)c2ncccc2c1`, with 5.80; and `O=C(CSc1nnc2ccc(-c3ccc(F)cc3)nn12)N1CCCCC1`, with 5.60.
Same read-out and setting: then `O=S(=O)(c1cccc(CSc2nnc(-c3ccc4c(c3)OCO4)o2)c1)N1CCOCC1`, with 6.70.
The same measure, in the same setting: then `CS(=O)(=O)c1ccc(Nc2nccc(-c3cnn4ncccc34)n2)cc1`, with 5.70; and `Cc1ccccc1NS(=O)(=O)c1ccc2[nH]cc(C(=O)NC3CCCCC3)c(=O)c2c1`, with 5.00.
In the case of `O=C(Nc1ncc([N+](=O)[O-])s1)C1CC1`, the pIC50 was 6.40.
Same read-out and setting: then `CN1CCN(c2nc(-c3ccc(Cl)cc3)c3c(N)n(C)nc3n2)CC1`, with 5.70.
The same measure, in the same setting: then `N#Cc1cccc(Cc2cc(Nc3cc(C4CC4)[nH]n3)nc(N3CC[C@H]3C(N)=O)n2)c1`, with 6.40; and `O=C(COc1ncnc2cc([N+](=O)[O-])ccc12)NC(=O)NC1CCCCC1`, with 5.89; and `Cc1[nH]nc(-c2nc3ccccc3[nH]2)c1C(=O)NC1CCCNC1` (stereo not drawn), with 6.10.
The same measure, in the same setting: then `COc1ccccc1CNc1cc(C2CC2)nc(-c2nccn2C)n1`, with 6.10.
For the molecule `Cc1nc(C(=O)Nc2ccc3c(c2)OCO3)nn1-c1ccc(Cl)cc1`, the pIC50 was 5.20.
For `COc1ccc(Nc2nc(NC3CCC(O)CC3)ncc2Br)c(C(N)=O)c1` (stereo not drawn), the pIC50 is 5.40.
As for `CNS(=O)(=O)c1ccccc1Nc1nc(Nc2ccnn2C)ncc1Cl`, the pIC50 was 6.40.
For `COc1ccc(-c2csc(NC(=O)c3ccc([N+](=O)[O-])s3)n2)cc1`, the pIC50 was 6.80.
Same read-out and setting: then `CS(=O)(=O)N1CCC(Nc2ncc(Br)c(Nc3cccc(F)c3C(N)=O)n2)CC1`, with 6.49.
Turning to `CCOC(=O)c1cn[nH]c1S(=O)(=O)N1CCC1c1ccccc1` (stereo not drawn), the IC50 (commonly the concentration needed to halve the response being measured) was > 50 µM (inactive).
In the case of `Cc1ccc2c(c1)-c1onc(C(=O)N3CCCCC3c3cccnc3)c1CO2` (stereo not drawn), the pIC50 is 7.00.
As to `O=C(Nc1ccc(C(=O)N2CCCC2c2ccc3c(c2)OCCCO3)cc1)c1ccco1` (stereo not drawn), the negative-log IC50 (pIC50) was 6.30.
Still for that read-out and setting: then `CCCCc1cc(Nc2cc(C3CCC3)[nH]n2)nc(N2CCC2C(N)=O)n1` (stereo not drawn), with 5.49; and `CC1=NN(C(=O)CCn2cnc([N+](=O)[O-])n2)C(O)(C(F)(F)F)C1` (stereo not drawn), with 5.70.
For `Cn1nccc1NC(=O)Cn1ccc(-c2ccncc2)n1`, the IC50 is > 50 µM (inactive).
Consider `CC(=O)Nc1ccc(CN2CCC(N3CC(c4ccccc4)(c4ccccc4)OCC3=O)CC2)cc1`, for which the pIC50 is 4.89.
With `NS(=O)(=O)c1ccc(CNC(=O)c2ccc([N+](=O)[O-])s2)cc1`, the pIC50 is 6.00.
Same read-out and setting: next, `CC(C(=O)Nc1ccccc1F)N(C)CC(=O)Nc1cccc2ccccc12` (stereo not drawn): 6.40; `Cc1cccc(Nc2nc(-c3ccccn3)cs2)n1`: 6.20.
Turning to `Cc1cc(N2CCc3ccccc3C2)nc(Nc2ccc(S(=O)(=O)N3CCOCC3)cc2)n1`, the IC50 was > 50 µM (inactive).
Regarding `O=C(CC1(O)C(=O)N(Cc2cccs2)c2ccc(Br)cc21)c1cccnc1` (stereo not drawn), the pIC50 is 5.30.
Still for that read-out and setting: then `Cc1[nH]n2c(=O)c3c(nc2c1-c1ccc(Cl)cc1)CCCC3`, with 6.40.
As to `O=C(Nc1cccc(Cl)c1)Nc1ccc([N+](=O)[O-])cc1Cl`, the negative-log IC50 (pIC50) was 5.89.
Turning to `CC1CN(S(=O)(=O)c2ccc(NC(=O)c3cc(C4CC4)nc4c3cnn4C(C)C)cc2)CC(C)O1` (stereo not drawn), the pIC50 was 6.20.
On the same count and under the same terms, next, `COc1cc(F)c2ncc(F)c(CCN3CC[C@H](NCc4cc5c(cn4)OCS5)[C@@H](O)C3)c2c1`: 6.40; `CCN(Cc1nc2ccc(C(=O)N3CCN(c4ncccn4)CC3)cc2[nH]1)C1CCCc2cccnc21` (stereo not drawn): 5.89; `O=S(=O)(NCC(c1cccnc1)N1CCN(c2ccc(F)cc2)CC1)c1cccs1` (stereo not drawn): 6.80.
In the case of `COc1ccc(Cl)cc1CC(=O)Nc1n[nH]c(-c2ccccn2)n1`, the negative-log IC50 (pIC50) was 5.00.
Consider `COc1cc(C2SCC(=O)Nc3c2c(C)nn3-c2nc3ccccc3s2)cc(OC)c1O` (stereo not drawn), for which the IC50 was > 50 µM (inactive).
As for `COc1ccc(C(=O)[C@H]2C[C@@H]2CN(Cc2ccccn2)Cc2ccccn2)cc1`, the pIC50 is 5.80.
As for `O=C(c1ccc(OCCCc2cnc[nH]2)cc1)C1CC1`, the negative logarithm of the IC50 (pIC50) was 6.49.
`CNC(=O)C1Cc2ccccc2N1C(=O)Cc1ccc(OC)cc1` (stereo not drawn): the IC50 is > 50 µM (inactive).
With `CC(=O)Nc1ccc(-c2csc(NC(=O)c3ccc([N+](=O)[O-])s3)n2)cc1`, the pIC50 is 6.89.
Regarding `O=C(O)[C@H]1C[C@@H]1c1ccc(-c2ccc(CN(CCc3ccccn3)C(=O)C3CCC3)cc2)cc1`, the IC50 was > 50 µM (inactive).
Same read-out and setting: then `COCc1cnc2c(c1SCc1c(F)cccc1Cl)c(=O)n(C)c(=O)n2C`, with > 50 µM (inactive).
Consider `O=C(NCCc1csc(-c2ccc(F)cc2)n1)c1cccs1`, for which the pIC50 is 6.40.
On the same count and under the same terms, then `Cc1ccc(Nc2nc(N)nc(CNC(c3nc4ccccc4[nH]3)C(C)C)n2)cc1` (stereo not drawn), with 6.00; and `Cc1nc2c(-c3cccs3)c(C)nn2c(NCCO)c1C`, with 4.40.
For the molecule `COc1ccc(C(=O)N2CCC(Nc3cccnc3)C2)c(OC)n1` (stereo not drawn), the pIC50 was 6.49.
With `Nc1nc(-c2ccccn2)nc(N)c1Cc1c(F)cccc1Cl`, the pIC50 was 5.80.
On the same count and under the same terms, then `O=C(Nc1ccc(S(=O)(=O)N2CCCC2)cc1)c1ccc([N+](=O)[O-])s1`, with 6.70; and `COc1ccc(CN(C)Cc2ccncc2)cc1-c1ccc(S(=O)(=O)NC2CCC2)s1`, with 6.30; and `Cc1cc2nc(CN(C)Cc3ncccc3C)[nH]c2cc1C`, with 6.30.
Consider `Cc1cccc(NS(=O)(=O)c2cnc3sc(C)cn3c2=O)c1`, for which the pIC50 was 5.89.
Same read-out and setting: then `O=C(NNC(=O)c1ccccn1)c1ccc(-c2ccccc2)cc1`, with 5.80.
